This passage reports Inhibition of excitotoxicity results from patent US20050009030A1, “Histone deacetylase: novel molecular target of neurotoxicity” (priority 2002, published 2005).

The test system of this assay is rat cerebellar granule cells. Kind of assay: Excitotoxicity in rat cerebellar granule cells induced by NMDA/serine or kainate, measured by MTT test. The assay is classed as cell-based. To be noted: excitotoxicity induced by 100 μM NMDA and 10 μM serine, or by 50 μM kainate; 30 to 40% toxicity by MTT tests. As to the method:
For this example, rat cerebellar granule cells were placed in culture, according to techniques known to those skilled in the art. Excitotoxicity was induced in these cells by two types of treatment: firstly, by the joint administration of 100 μM NMDA (N-Methyl-D-aspartic acid) and 10 μM serine, and secondly by administration of 50 μM kainate. Under the experimental conditions adopted, 30 to 40% toxicity was observed and measured using MTT tests, known to those skilled in the art.
Background: Tetrazolium dyes change colour on reduction, which living cells bring about.

Turning to `CC(/C=C/C(=O)NO)=C\[C@@H](C)C(=O)c1ccc(N(C)C)cc1` [trichostatin A], the Inhibition of excitotoxicity entry was “Inhibition of excitotoxicity can be demonstrated”.
